Results on 35 compounds are retold here after patent US11505558B1, “Antiviral heterocyclic compounds” (Enanta Pharmaceuticals, Inc., priority 2019, dated 2022).

The subject of assay [1] is genotype A, "Long" strain RSV. In words: RSV-A assay (CPE, ATPlite readout in Hep-2 cells). In kind it is cell-based. To be noted: human respiratory syncytial virus, HEp-2, Hep-2 cells, genotype A "Long" strain RSV, MOI 0.1; read-out: Human RSV-A (“Long” strain) EC50. The gist of the method:
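Protection from RSV-induced cytopathic effect, measured as ATPlite luminescence after 5 days, gave EC50 values. Assay used genotype A Long strain at MOI 0.1 on Hep-2 cells seeded at 8,000/well in DMEM growth media with 10% FBS; compounds tested as 2-fold dilutions in duplicate.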

Assay [2] has as its system recombinant HMPV CAN97-83 (MPV-GFP1). In words: HMPV antiviral assay (MPV-GFP1 eGFP fluorescence in Vero E6 cells). It is filed as cell-based. To be noted: human metapneumovirus, Vero C1008, 120 h, read-out: HMPV EC50. Here is the method:
HMPV antiviral activity was evaluated using a recombinant version of HMPV CAN97-83 engineered to contain the coding sequence for enhanced green fluorescence protein (eGFP) in the 3′ end of the virus genome (MPV-GFP1, ViraTree). Vero E6 cells ([…]) were seeded at a density of 12,000 cells/100 μL/well into 96-well cell plates one day prior to the assay. On the day of screening, the cell culture medium was aspirated from the wells and cells were washed twice with serum-free Eagle's Modified Essential Medium (EMEM, ATCC #) containing 1% penicillin-streptomycin (Invitrogen) (SF-EMEM). Cell washes were performed by dispensing 100 μL SF-EMEM per well and immediately aspirating the wash medium from the well. Following the second wash step, serum-free OptiMEM (Invitrogen, Cat No.) (SF-OptiMEM) containing 0.5 μg/mL TPCK-Trypsin (VENDOR) and 1% penicillin-streptomycin was added to the cells at 50 μL/well. Compounds were added into the 96-well plates using a JANUS automated liquid handling system (VENDOR). Compounds were initially diluted 1:50 into an intermediate 96-well plate containing SF-OptiMEM prior to transfer to the assay plate (25 μL/well). Each of the test compounds were tested in duplicate wells at final concentrations starting from 8 μM or 2 μM using ½ stepwise dilutions for a total of 8 points. Virus infection was performed by preparing a working stock of MPV-GFP1 at a multiplicity of infection (MOI) equal to 0.05/25 μL and aliquoting 25 μL of virus inoculum to the compound and positive control wells. SF-OptiMEM was added (25 μL/well) to the appropriate wells to serve as a virus-free negative control for the assay. The final DMSO concentration of all wells is 0.5%. Plates were incubated at 32° C., 5% CO2 for 5 days.
After 5 days incubation, eGFP fluorescence intensity was measured at […] using a Spectramax i3X plate reader (VENDOR). Percent viral inhibition was calculated using the following equation: y=[[…]−(XQ/XP)]×100 Where XQ is the fluorescence intensity measured in a well containing recombinant MPV-GFP1-infected, compound-treated cells and XP is the average fluorescence intensity measured in the wells containing untreated cells infected with recombinant virus. EC50 values were then calculated by non-linear regression using a four parameter curve logistic equation. The curve fit model employed was XLFit Dose Response One Site Model 200: y=(A+(B/(1+((x/C)^D)))) Where A is the minimum y value, B is the maximum y value, C is the log EC50 value, and D is the slope factor. […] EC50 ranges are as follows: A<0.5 μM; B>0.5 μM.

Structures are written as SMILES.

In the case of `C[C@]1(C(N)=O)COc2c1cc([C@@](O)(CNC(=O)c1cc(Nc3ccncc3)c3ncccc3c1)C(F)(F)F)nc2-c1ccc(F)cc1` [Example 336], the concentration for a half-maximal effect (EC50) in assay [1] was less than 200 nM; in assay [2] it was greater than 500 nM.
As to `C[C@]1(C(N)=O)COc2c1cc([C@@](O)(CNC(=O)c1cc(Nc3ncccn3)c3ncccc3c1)C(F)(F)F)nc2-c1ccc(F)cc1` [Example 337], the values for the EC50 in assay [1] and in assay [2] were less than 200 nM and greater than 500 nM, respectively.
In the same order, the values of `C[C@]1(C(N)=O)COc2c1cc([C@@](O)(CNC(=O)c1cc(Nc3cccnc3)c3ncccc3c1)C(F)(F)F)nc2-c1ccc(F)cc1` [Example 339] are less than 200 nM and greater than 500 nM.
For the compound `C[C@]1(C(N)=O)COc2c1cc([C@@](O)(CNC(=O)c1cc(Nc3ncncn3)c3ncccc3c1)C(F)(F)F)nc2-c1ccc(F)cc1` [Example 340], the 50% effective concentration (EC50) was less than 200 nM in assay [1] and greater than 500 nM in assay [2].
`C[C@]1(C(N)=O)COc2c1cc([C@@](O)(CNC(=O)c1cc(Nc3cnccn3)c3ncccc3c1)C(F)(F)F)nc2-c1ccc(F)cc1` [Example 341]: the EC50 is less than 200 nM in assay [1] and greater than 500 nM in assay [2].
Take `C[C@]1(C(N)=O)COc2c1cc([C@@](O)(CNC(=O)c1cc(Nc3cncnc3)c3ncccc3c1)C(F)(F)F)nc2-c1ccc(F)cc1` [Example 342]: the figures for the EC50 in assay [1] and in assay [2] were less than 200 nM and greater than 500 nM, respectively.
Consider `C[C@]1(C(N)=O)COc2c1cc([C@@](O)(CNC(=O)c1cc(-c3cccnc3)c3ncccc3c1)C(F)(F)F)nc2-c1ccc(F)cc1` [Example 350], for which the 50% effective concentration (EC50) in assay [1] is less than 200 nM; in assay [2] it was greater than 500 nM.
For `COc1cc(C(=O)NC[C@](O)(c2cc3c(c(-c4ccc(F)cc4)n2)OC[C@]3(C)C(N)=O)C(F)(F)F)cc2ccncc12` [Example 361], the figures for the 50% effective concentration (EC50) in assay [1] and in assay [2] were less than 200 nM and greater than 500 nM, respectively.
`C[C@]1(C(N)=O)COc2c1cc([C@@](O)(CNC(=O)c1cc(OCC(N)=O)c3ncccc3c1)C(F)(F)F)nc2-c1ccc(F)cc1` [Example 364]: the 50% effective concentration (EC50) in assay [1] is less than 200 nM; in assay [2] it was greater than 500 nM.
Turning to `Cc1cnc2c(OCC(N)=O)cc(C(=O)NC[C@](O)(c3cc4c(c(-c5ccc(F)cc5)n3)OC[C@]4(C)C(N)=O)C(F)(F)F)cc2c1` [Example 366], the results for the concentration giving a half-maximal response (EC50) in assay [1] and in assay [2] were less than 200 nM and greater than 500 nM, respectively.
In the same order, the values of `CN(C)C(=O)COc1cc(C(=O)NC[C@](O)(c2cc3c(c(-c4ccc(F)cc4)n2)OC[C@]3(C)C(N)=O)C(F)(F)F)cc2cccnc12` [Example 373] are less than 200 nM and greater than 500 nM.
On the same counts, the results for `CCCNC(=O)COc1cc(C(=O)NC[C@](O)(c2cc3c(c(-c4ccc(F)cc4)n2)OC[C@]3(C)C(N)=O)C(F)(F)F)cc2cccnc12` [Example 374] are less than 200 nM and less than 500 nM.
Take `CC(C)(Oc1cc(C(=O)NC[C@](O)(c2cc3c(c(-c4ccc(F)cc4)n2)OC[C@]3(C)C(N)=O)C(F)(F)F)cc2cccnc12)C(N)=O` [Example 380]: the figures for the concentration giving a half-maximal response (EC50) in assay [1] and in assay [2] were less than 200 nM and greater than 500 nM, respectively.
On the same counts, the results for `C[C@]1(C(N)=O)COc2c1cc([C@@](O)(CNC(=O)c1cc(NCC(N)=O)c3ncccc3c1)C(F)(F)F)nc2-c1ccc(F)cc1` [Example 384] are less than 200 nM and greater than 500 nM.
On the same counts, the results for `C[C@]1(C(N)=O)COc2c1cc([C@@](O)(CNC(=O)c1cc(Oc3cnccn3)c3ncccc3c1)C(F)(F)F)nc2-c1ccc(F)cc1` [Example 387] are less than 200 nM and greater than 500 nM.
On the same counts, the results for `C[C@]1(C(N)=O)COc2c1cc([C@@](O)(CNC(=O)c1cc(Oc3ccncc3)c3ncccc3c1)C(F)(F)F)nc2-c1ccc(F)cc1` [Example 388] are less than 200 nM and greater than 500 nM.
Consider `C[C@]1(C(N)=O)COc2c1cc([C@@](O)(CNC(=O)c1cc(OCc3ncco3)c3ncccc3c1)C(F)(F)F)nc2-c1ccc(F)cc1` [Example 390], for which the EC50 in assay [1] is less than 200 nM; in assay [2], greater than 500 nM.
On to `CC(=O)Nc1cc(C(=O)NC[C@](O)(c2cc3c(c(-c4ccc(F)cc4)n2)OC[C@]3(C)C(N)=O)C(F)(F)F)cc2cccnc12` [Example 393], for which the values for the 50% effective concentration (EC50) in assay [1] and in assay [2] were less than 200 nM and less than 500 nM, respectively.
Consider `Cc1nc(C(=O)Nc2cc(C(=O)NC[C@](O)(c3cc4c(c(-c5ccc(F)cc5)n3)OC[C@]4(C)C(N)=O)C(F)(F)F)cc3cccnc23)co1` [Example 397], for which the values for the EC50 in assay [1] and in assay [2] were less than 200 nM and greater than 500 nM, respectively.
In the same order, the values of `C[C@]1(C(N)=O)COc2c1cc([C@@](O)(CNC(=O)c1cc(NC(=O)c3ncco3)c3ncccc3c1)C(F)(F)F)nc2-c1ccc(F)cc1` [Example 398] are less than 200 nM and less than 500 nM.
Regarding `C[C@]1(C(N)=O)COc2c1cc([C@@](O)(CNC(=O)c1cc(OC3CC3)c3nc(CO)ccc3c1)C(F)(F)F)nc2-c1ccc(F)cc1` [Example 406], the EC50 was less than 200 nM in assay [1] and greater than 500 nM in assay [2].
On the same counts, the results for `C[C@]1(C(N)=O)COc2c1cc([C@@](O)(CNC(=O)c1cc(NC(N)=O)c3ncccc3c1)C(F)(F)F)nc2-c1ccc(F)cc1` [Example 408] are less than 200 nM and greater than 500 nM.
For the compound `CC1(NC(=O)Nc2cc(C(=O)NC[C@](O)(c3cc4c(c(-c5ccc(F)cc5)n3)OC[C@]4(C)C(N)=O)C(F)(F)F)cc3cccnc23)CC1` [Example 411], the results for the 50% effective concentration (EC50) in assay [1] and in assay [2] were less than 200 nM and less than 500 nM, respectively.
As to `Cc1cnc2c(NC(=O)C3CC3)cc(C(=O)NC[C@](O)(c3cc4c(c(-c5ccc(F)cc5)n3)OC[C@]4(C)C(N)=O)C(F)(F)F)cc2c1` [Example 416], the EC50 in assay [1] is less than 200 nM; in assay [2] it was greater than 500 nM.
`Cc1cnc2c(NC(=O)NC3CC3)cc(C(=O)NC[C@](O)(c3cc4c(c(-c5ccc(F)cc5)n3)OC[C@]4(C)C(N)=O)C(F)(F)F)cc2c1` [Example 417]: the values for the EC50 in assay [1] and in assay [2] were less than 200 nM and less than 500 nM, respectively.
Regarding `Cc1cnc2c(NC(=O)c3coc(C)n3)cc(C(=O)NC[C@](O)(c3cc4c(c(-c5ccc(F)cc5)n3)OC[C@]4(C)C(N)=O)C(F)(F)F)cc2c1` [Example 418], the EC50 in assay [1] is less than 200 nM; in assay [2] it was less than 500 nM.
As for `Cc1nc2ccc(C(=O)NC[C@](O)(c3cc4c(c(-c5ccc(F)cc5)n3)OC[C@]4(C)C(N)=O)C(F)(F)F)cc2o1` [Example 424], the values for the EC50 in assay [1] and in assay [2] were less than 200 nM and less than 500 nM, respectively.
In the same order, the values of `C[C@]1(C(N)=O)COc2c1cc([C@@](O)(CNC(=O)c1ccc3nc(N)sc3c1)C(F)(F)F)nc2-c1ccc(F)cc1` [Example 429] are less than 200 nM and greater than 500 nM.
In the same order, the values of `Cc1nc2ccc(C(=O)NC[C@](O)(c3cc4c(c(-c5ccc(F)cc5)n3)OC[C@]4(C)C(N)=O)C(F)(F)F)cc2s1` [Example 430] are less than 200 nM and less than 500 nM.
For `COc1cc(C(=O)NC[C@](O)(c2cc3c(c(-c4ccc(F)cc4)n2)OC[C@]3(C)C(N)=O)C(F)(F)F)cc2sc(N)nc12` [Example 431], the 50% effective concentration (EC50) in assay [1] was less than 200 nM; in assay [2] it was less than 500 nM.
On the same counts, the results for `COc1cc(C(=O)NC[C@](O)(c2cc3c(c(-c4ccc(F)c(Cl)c4)n2)OC[C@]3(C)C(N)=O)C(F)(F)F)cc2sc(N)nc12` [Example 433] are less than 200 nM and less than 500 nM.
As for `COc1nc2c(OC(C)C)cc(C(=O)NC[C@](O)(c3cc4c(c(-c5ccc(F)cc5)n3)OC[C@]4(C)C(N)=O)C(F)(F)F)cc2s1` [Example 444], the EC50 in assay [1] is less than 200 nM; in assay [2], greater than 500 nM.
On to `COc1nc2c(OC)cc(C(=O)NC[C@](O)(c3cc4c(c(-c5ccc(F)cc5)n3)OC[C@]4(C)C(N)=O)C(F)(F)F)cc2s1` [Example 445], for which the figures for the concentration for a half-maximal effect (EC50) in assay [1] and in assay [2] were less than 200 nM and less than 500 nM, respectively.
In the same order, the values of `COc1cc(C(=O)NC[C@](O)(c2cc3c(c(-c4ccc(F)cc4)n2)OC[C@]3(C)C(=O)NC2(C#N)CC2)C(F)(F)F)cc2cccnc12` [Example 451] are less than 200 nM and less than 500 nM.
Regarding `CC(C)(O)[C@H](F)CNC(=O)[C@@]1(C)COc2c1cc([C@@](O)(CNC(=O)c1cc(OC3CC3)c3ncccc3c1)C(F)(F)F)nc2-c1ccc(F)cc1` [Example 459], the EC50 was less than 200 nM in assay [1] and greater than 500 nM in assay [2].
